{"source": "patent US8486958B2", "about": "“Crystalline forms of a 3-carboxypropyl-aminotetralin compound” (priority 2008, dated 2013)", "key": {"human mu opioid receptor [1]": {"biological_target": "T1, human mu opioid receptor (Homo sapiens, UniProt P35372)", "T1 construct": "expressed in transfected cells; host or cells: CHO-K1", "T1 sequence (P35372 whole entry)": "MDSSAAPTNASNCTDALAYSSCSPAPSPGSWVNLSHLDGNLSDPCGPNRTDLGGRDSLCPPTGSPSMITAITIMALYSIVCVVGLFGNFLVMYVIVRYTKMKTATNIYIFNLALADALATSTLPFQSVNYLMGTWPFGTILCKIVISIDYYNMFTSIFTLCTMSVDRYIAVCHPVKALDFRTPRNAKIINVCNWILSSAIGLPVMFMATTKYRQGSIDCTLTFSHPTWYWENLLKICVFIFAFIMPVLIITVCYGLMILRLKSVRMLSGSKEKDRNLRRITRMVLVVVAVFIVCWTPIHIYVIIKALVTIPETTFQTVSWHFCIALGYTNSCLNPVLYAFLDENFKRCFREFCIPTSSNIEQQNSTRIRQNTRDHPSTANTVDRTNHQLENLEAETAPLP", "assay": "Radioligand binding assay, [3H]-Diprenorphine displacement, CHO-K1 membranes"}, "human mu opioid receptor [2]": {"biological_target": "T1, human mu opioid receptor", "assay": "Human mu GTP-Eu nucleotide exchange assay (agonist mediated activation)", "format": "biochemical", "conditions": "relative to DAMGO as full agonist; read-out: intrinsic activity (IA), bound GTP-Eu relative to DAMGO (IA=100)"}, "[3]": {"system": "loperamide-induced delayed gastric emptying", "assay": "Rat gastric emptying assay (reversal of loperamide-induced delay)", "format": "in vivo", "conditions": "administered orally, loperamide 1 mg/kg s.c.", "experimental": "Assay 3: Rat Model of In Vivo Efficacy In this assay the efficacy of test compounds was evaluated in a model of gastrointestinal transit, which evaluates peripheral activity. This study was approved by the Institutional Animal Care and Use Committee at […]. and conformed to the Guide for the Care and Use of Laboratory Animals published by the National Academy of Sciences (©1996). Test compounds were evaluated in the rat gastric emptying assay to determine their ability to reverse loperamide-induced delayed gastric emptying. Rats were fasted up overnight prior to administration of test compounds or vehicle by intravenous, subcutaneous, intramuscular or oral routes of administration at doses ranging from 0.001 to about 30 milligrams/kilogram (mg/kg). The administration of test compound was followed by subcutaneous administration of loperamide at a dose of 1 mg/kg or vehicle. […] Gastric weight was then determined after removal of the ligatures. Data was analyzed using the GraphPad Prism Software package (GraphPad Software, Inc., San Diego, Calif.). Percent reversal curves were constructed by non-linear regression analysis using the sigmoidal dose response (variable slope) model and best-fit ID50 values were calculated. […]"}, "[4]": {"system": "motility of the gastrointestinal (GI) tract", "assay": "Gastrointestinal motility in animal models", "format": "in vivo"}, "[5]": {"assay": "Dynamic moisture sorption assessment", "format": "physicochemical", "conditions": "for deliquescence: up to about 90% relative humidity at room temperature", "experimental": "Dynamic moisture sorption (DMS) assessment was performed at 25° C. using a VTI atmospheric microbalance, SGA-100 system (VTI Corp., Hialeah, Fla. 33016). […] A typical DMS analysis consisted of three or four scans: ambient to 2% relative humidity (RH), 2% RH to 90% RH, 90% RH to 5% RH at a scan rate of 5% RH/step, and, in some case a second adsorption 2% RH to 90% RH. The mass was measured every two minutes and the RH was changed to the next value (±5% RH) when the mass of the sample was stable to within 0.02% for 5 consecutive points."}, "[6]": {"assay": "Thermogravimetric analysis (TGA)", "format": "physicochemical", "conditions": "temperatures below the melting point", "experimental": "Thermogravimetric analysis (TGA) was performed using a TA Instruments Model Q-500 module. Data were collected and analyzed using TA Instruments Thermal Advantage for Q Series™ software. A sample weighing about 1-5 mg was placed in an aluminum pan on a platinum cradle and scanned from ambient temperature to 300° C. with a linear heating rate of 10° C./min. The balance and furnace chambers were purged with nitrogen during use. Representative TGA traces for samples of crystalline Form I and of a crystalline hydrochloride salt of compound 1 are also shown in FIGS. 2 and 7, respectively."}}, "data": [{"smiles": "CCC1(CC)c2cc(C(N)=O)ccc2C[C@H](OC)[C@H]1NCC[C@H](CC1CCCCC1)C(=O)O", "note": "[Compound 1, (S)-4-((2S,3S)-7-carbamoyl-1,1-diethyl-3-methoxy-1,2,3,4-tetrahydronaphthalen-2-ylamino)-2-cyclohexylmethyl-butyric acid]", "values": [{"measurement": "Ki", "setting": "human mu opioid receptor [1]", "value": 0.398, "unit": "nM"}, {"measurement": "Emax", "setting": "human mu opioid receptor [2]", "value": -8, "unit": "%"}, {"measurement": "ID50, dose required for 50% reversal of the effects of loperamide", "setting": "[3]", "value": 0.09, "unit": "mg/kg"}, {"measurement": "effect on motility of the gastrointestinal tract", "setting": "[4]", "value": "increase motility of the gastrointestinal (GI) tract"}]}, {"smiles": "CCC1(CC)c2cc(C(N)=O)ccc2C[C@H](OC)[C@H]1NCC[C@H](CC1CCCCC1)C(=O)O.Cl", "note": "[(S)-4-((2S,3S)-7-Carbamoyl-1,1-diethyl-3-methoxy-1,2,3,4-tetrahydronaphthalen-2-ylamino)-2-cyclohexylmethyl-butyric acid hydrochloride]", "values": [{"measurement": "appearance and flowability on exposure to humidity", "setting": "[5]; about 2% to about 90% relative humidity at room temperature", "value": "retained their appearance and flowability"}, {"measurement": "deliquescence", "setting": "[5]", "value": "neither crystalline compound 1 nor the crystalline hydrochloride salt of compound 1 is deliquescent"}]}, {"smiles": "CCC1(CC)c2cc(C(N)=O)ccc2C[C@H](OC)[C@H]1NCC[C@H](CC1CCCCC1)C(=O)O", "note": "[Form I, (S)-4-((2S,3S)-7-carbamoyl-1,1-diethyl-3-methoxy-1,2,3,4-tetrahydronaphthalen-2-ylamino)-2-cyclohexylmethyl-butyric acid]", "values": [{"measurement": "weight gain (moisture sorption)", "setting": "[5]; 40% to 75% relative humidity", "value": "less than 1%"}, {"measurement": "TGA weight loss", "setting": "[6]", "value": "no significant weight loss"}]}, {"smiles": "CCC1(CC)c2cc(C(N)=O)ccc2C[C@H](OC)[C@H]1NCC[C@H](CC1CCCCC1)C(=O)O", "note": "[crystalline compound 1, (S)-4-((2S,3S)-7-carbamoyl-1,1-diethyl-3-methoxy-1,2,3,4-tetrahydronaphthalen-2-ylamino)-2-cyclohexylmethyl-butyric acid]", "values": [{"measurement": "weight gain (moisture sorption)", "setting": "[5]; 2% to 90% relative humidity, room temperature", "value": "less than 2.5%"}, {"measurement": "deliquescence", "setting": "[5]", "value": "neither crystalline compound 1 nor the crystalline hydrochloride salt of compound 1 is deliquescent"}]}]}
